Experimental data reported in ChEMBL document CHEMBL5726876, “NHE3-binding compounds and methods for inhibiting phosphate transport” (2019).
Several values for one entry are separate records, joined by “and”; a condition that tells them apart may be missing. Identical values can stand only once.

Legend:
[1] = Cell-based activity under Prompt Conditions: Cell-based activity under Prompt Conditions. Rat or human NHE3-mediated Na+-dependent H+ antiport was measured using a modification of the pH sensitive dye method originally reported by Paradiso (PNAS USA. 81:7436-7440, 1984). Opossum kidney (OK) cells were obtained from the ATCC and propagated per their instructions. The rat NHE3 gene (GenBank M85300) or the human NHE3 gene (GenBank NM_004174.1) was introduced into OK cells via electroporation, and cells were seeded into 96 well plates and grown overnight. Medium was aspirated from the wells, cells were washed twice with NaCl-HEPES buffer (100 mM NaCl, 50 mM HEPES, 10 mM glucose, 5 mM KCl, 2 mM CaCl2, 1 mM MgCl2, pH 7.4), then incubated for 30 min at room temperature with NH4Cl-HEPES buffer (20 mM NH4Cl, 80 mM NaCl, 50 mM HEPES, 5 mM KCl, 2 mM CaCl2, 1 mM MgCl2, pH 7.4) containing 5 μM bis(acetoxymethyl) 3,3′-(3′,6′-bis(acetoxymethoxy)-5-((acetoxymethoxy)carbonyl)-3-oxo-3H-spiro[isobenzofuran-1,9′-xanthene]-2′,7′-diyl)dipropanoate (BCECF-AM).Cells were washed twice with Ammonium free, Na+-free HEPES (100 mM choline, 50 mM HEPES, 10 mM glucose, 5 mM KCl, 2 mM CaCl2, 1 mM MgCl2, pH 7.4) and incubated in the same buffer for 10 minutes at room temperature to lower intracellular pH. […] Initial rates were plotted as the average 2 or more replicates, and pIC50 values were estimated using GraphPad Prism.
[2] = Cell-Based Assay of NHE3 Activity under Persistent Conditions: The ability of compounds to inhibit Rat NHE3-mediated Na+-dependent H+ antiport after application and washout was measured using a modification of the pH sensitive dye method described above. Opossum kidney (OK) cells were obtained from the ATCC and propagated per their instructions. The rat NHE3 gene was introduced into OK cells via electroporation, and cells were seeded into 96 well plates and grown overnight. Medium was aspirated from the wells, cells were washed twice with NaCl-HEPES buffer (100 mM NaCl, 50 mM HEPES, 10 mM glucose, 5 mM KCl, 2 mM CaCl2, 1 mM MgCl2, pH 7.4), then overlayed with NaCl-HEPES buffer containing 0-30 μM test compound.After a 60 min incubation, the test drug containing buffer was aspirated from the cells, cells were washed twice with NaCl-HEPES buffer without drug, then incubated for 30 min at room temperature with NH4Cl-HEPES buffer (20 mM NH4Cl, 80 mM NaCl, 50 mM HEPES, 5 mM KCl, 2 mM CaCl2, 1 mM MgCl2, pH 7.4) containing 5 uM BCECF-AM. Cells were washed twice with Ammonium free, Natfree HEPES (100 mM choline, 50 mM HEPES, 10 mM glucose, 5 mM KCl, 2 mM CaCl2, 1 mM MgCl2, pH 7.4) and incubated in the same buffer for 10 minutes at room temperature to lower intracellular pH. […] Initial rates were plotted as the average 2 or more replicates, and pIC50 values w
[3] = Cell-based assay of NaP2b activity: The rate of phosphate (Pi) uptake into cells was measured using a modification of a literature method (see Mohrmann et al. Am. J. Phys. 250(3 pt 1):G323-30, 1986). Briefly, HEK293 cells were transiently transfected with an expression clone encoding either rat or human NaP2b. The next day, transfected cells were treated with a pharmacological agent to minimize endogenous PiT-mediated phosphate transport activity, such that the only remaining sodium-dependent phosphate transport activity is that which was bestowed by introduction of the NaP2b gene. Cells were incubated with radioactive inorganic phosphate in the presence or absence of varying concentrations of test compound. After a short time, cells were washed, harvested, and the amount of hot phosphate taken up in the cells determined by liquid scintillation counting.HEK293 cells were obtained from the American Type Culture collection and propagated per their instructions. Expression clones for rat and human NaP2b (SLC34A2) were obtained from Open Biosystems (Catalog numbers MRN1768-9510282, and MHS1010-99823026, respectively). There are two putative splice variants of human NaP2b, designated as isoform a and isoform b (NCBI Reference Sequences: NP_006415.2 and NP_ 001171470.1, respectively). […] […]

**Q.** With `CN1Cc2c(Cl)cc(Cl)cc2[C@H](c2cccc(S(=O)(=O)NCCOCCOCCNC(=O)NCCCCNC(=O)NCCOCCOCCNS(=O)(=O)c3cccc([C@@H]4CN(C)Cc5c(Cl)cc(Cl)cc54)c3)c2)C1` [TENAPANOR] as the molecule, how does the IC50 [1] read?
**A.** 9.33 nM and 10 nM

**Q.** What about the IC50 [2] of the same molecule?
**A.** 3.98 nM

**Q.** What about the IC50 [3] of the same molecule?
**A.** < 31600 nM
